Experimental data from patent publication US20200190090A1, “OREXIN RECEPTOR ANTAGONISTS” (BENEVOLENTAI BIO LIMITED, priority 2017, published 2020).
Read-outs that look alike come from different tables or passages of the source.

How the values were obtained:
[1] = biological target: T1, human recombinant OX1 (hOX1R) receptor (Homo sapiens, UniProt O43613); assay: Scintillation Proximity binding Assay (SPA), [3H]-SB674042 displacement, membranes of CHO cell line transformed with hOX1R; settings: for Ki: 60 min, Cheng-Prusoff from IC50, geometric mean, read-out: hOX1R Binding pKi (60 min) (converted); for IC50: SPA, [3H]-SB674042, room temperature (19° C.), GeoMean, read-out: IC50 OX1R
T1 construct: expressed in transfected cells; host or cells: CHO cell line (membranes)
T1 sequence (O43613 1-425): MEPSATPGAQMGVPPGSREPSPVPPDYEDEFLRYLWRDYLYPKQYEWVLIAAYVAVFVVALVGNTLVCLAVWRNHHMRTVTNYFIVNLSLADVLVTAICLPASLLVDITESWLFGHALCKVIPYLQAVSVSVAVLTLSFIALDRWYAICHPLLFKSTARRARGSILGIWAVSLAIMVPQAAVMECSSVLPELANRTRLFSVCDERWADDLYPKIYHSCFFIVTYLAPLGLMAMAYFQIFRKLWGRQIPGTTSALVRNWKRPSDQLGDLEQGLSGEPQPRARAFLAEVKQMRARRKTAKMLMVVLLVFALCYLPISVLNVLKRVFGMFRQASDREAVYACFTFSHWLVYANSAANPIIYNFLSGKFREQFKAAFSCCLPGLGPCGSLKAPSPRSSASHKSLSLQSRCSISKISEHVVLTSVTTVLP
Method: (§1) The in vitro binding affinity of 6-[(3aS,4S,6aR)-5-(2-fluoro-4-methoxybenzoyl)-4-methyl-octahydropyrrolo[3,4-c]pyrrol-2-yl]-2,4-dimethylpyridine-3-carbonitrile 3278/6 (the compound of Example 1) for human recombinant OX1 (hOX1R) and OX2 (hOX2R) receptors was determined using a Scintillation Proximity binding Assay (SPA).
(§2) A 96-well plate SPA was developed using antagonist radioligands (OX-radioligands); [3H]-SB674042 (Langmead et al., 2004; Malherbe et al., 2009a) for hOX1R and [3H]-EMPA (Malherbe et al., 2009b) for hOX2R. Cell membranes were prepared from recombinant cell lines; a CHO cell line transformed with hOX1R (GeneBank accession # NM_001525) and a HEK cell line transformed with hOX2R (GeneBank accession # NM_001526.2).
(§3) On the day of the assay, membranes containing hOX1R or hOX2R were captured onto SPA-beads. All test compounds were dissolved in 100% DMSO as 10 mM stock solutions, and prepared as 8-point semi-log dilution in 100% DMSO immediately prior to assay (final assay range 5 uM to 0.064 nM). The compound of Example 1 was co-administered with the appropriate OX-radioligand, and the SPA-membrane preparation added to initiate the assay. During the assay, any compound of Example 1 that bound to the receptors competed with radioligand and reduced the assay signal. Assay plates were read using PerkinElmer Microbeta2 allowing the binding profile of the compound of Example 1 to be assessed at room temperature (19° C.) over several time points (15, 60, 90, 120, 150 minutes, and 18 hours) in hOX1R and hOX2R assay formats.
(§4) End-point data values were determined as Specific Binding (SB) and expressed as a percentage of control (% SB), with 100% being the SB of OX-radioligand in the absence of competing unlabelled ligand, and 0% being the SB of the relevant OX-radioligand in the presence of an excess of the competing cold/unlabelled ligand (Suvorexant; a dual OXR-antagonist [DORA]).
(§5) TB=Total Bound (in presence of 0.5% DMSO); NSB=Non Specific Bound (in the presence of Suvorexant at 1 μM)=0%;
(§6) SB=Specific Bound (TB-NSB)=100%
(§7) Assay data were used to determine half maximal inhibitory concentration (IC50) using a four-parameter logistic model in XLfit and/or GraphPad Prism v5. IC50 were derived from plots of % SB against log 10 of the concentration of the compound of Example 1. The pKi were calculated from the IC50 using the Cheng-Prusoff correction: […]=IC50/(1+([L]/KD)) where [L] is the radioligand concentration in the displacement assay, and KD is the dissociation constant of the radioligand.
(§8) The Selectivity value is derived from the Ki [Ki (OX2R)/Ki(OX1R)].
(§9) was prepared and tested by analogous methods to those described above in Example 1 and Example 2 in respect of the compound of Example 1.

[2] = biological target: T2, human recombinant OX2 (hOX2R) receptor (Homo sapiens, UniProt O43614); assay: Scintillation Proximity binding Assay (SPA), [3H]-EMPA displacement, membranes of HEK cell line transformed with hOX2R; settings: for Ki: 60 min, Cheng-Prusoff from IC50, geometric mean, read-out: hOX2R Binding pKi (60 min) (converted); for Selectivity OX2R/OX1R: selectivity calculated using Ki (Ox2R)/Ki(Ox1R)
T2 construct: expressed in transfected cells; host or cells: HEK cell line (membranes)
T2 sequence (O43614 1-444): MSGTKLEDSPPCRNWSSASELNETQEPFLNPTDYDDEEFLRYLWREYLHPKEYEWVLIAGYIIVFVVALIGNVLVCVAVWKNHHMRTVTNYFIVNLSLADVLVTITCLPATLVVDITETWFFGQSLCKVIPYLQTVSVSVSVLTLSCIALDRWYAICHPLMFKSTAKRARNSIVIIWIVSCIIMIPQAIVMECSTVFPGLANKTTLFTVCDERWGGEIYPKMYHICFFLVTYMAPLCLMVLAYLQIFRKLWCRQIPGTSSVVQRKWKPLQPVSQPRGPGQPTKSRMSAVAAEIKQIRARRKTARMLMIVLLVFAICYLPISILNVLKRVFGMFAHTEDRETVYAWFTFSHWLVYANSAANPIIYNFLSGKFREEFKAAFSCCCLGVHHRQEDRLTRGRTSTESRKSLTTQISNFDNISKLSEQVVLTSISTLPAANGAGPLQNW
Method: as §1, §2, §3, §4, §5, §6, §7, §8, §9

[3] = SPA, [3H]-EMPA, room temperature (19° C.), GeoMean, read-out: IC50 OX2R
[4] = data at 60 min, read-out: OX2R pIC50 (converted)

SMILES	affinity for hOX1R (in words) [1]	Ki [1] [nM]	IC50 [1] [nM]	affinity for hOX2R (in words) [2]	Ki [2] [nM]	IC50 [2, 3] [nM]	affinity for hOX2R compared with comparative Example A (in words) ([2]; comparison)	IC50 [2, 4] [nM]	hOX2R Selectivity (IC50 hOX2R/hOX1R) ([2]; head says IC50 ratio)	selectivity for hOX2R ([2]; over hOX1R) [fold]	hOX2R Binding Equilibration Time ([2]; room temperature (19° C.)) [min]	Selectivity OX2R/OX1R [2]	OX2R Selectivity (IC50 OX1R/OX2R) ([2]; IC50 ratio)
COc1ccc(C(=O)N2C[C@H]3CN(c4cc(C)c(C#N)c(C)n4)C[C@H]3[C@@H]2C)c(F)c1 [Example 1, 6-[(3aS,4S,6aR)-5-(2-fluoro-4-methoxybenzoyl)-4-methyl-octahydropyrrolo[3,4-c]pyrrol-2-yl]-2,4-dimethylpyridine-3-carbonitrile]	high affinity	47.9	97.7	high affinity	0.724	1.23	higher affinity	1.23	69	69	38	69	
COc1ccc(C(=O)N2C[C@@H]3CN(c4cc(C)c(C#N)c(C)n4)C[C@@H]3C2)c(F)c1 [Example A, 6-[(3aS,4S,6aR)-5-(2-fluoro-4-methoxybenzoyl)-octahydropyrrolo[3,4-c]pyrrol-2-yl]-2,4-dimethylpyridine-3-carbonitrile, reference compound]		3630	7840		85.1	150		151				43	52
